Assay [1] relates to SMN protein in SMA patient fibroblast cells (GM03813). Put plainly: SMN protein assay (HTRF) in cultured cells. The format is cell-based. The conditions noted are these: Homo sapiens, SMA Type 1 patient fibroblasts, 48 hours; for EC (1.5-fold): concentration producing 1.5 times SMN protein vs vehicle, read-out: EC1.5x SMN protein; for maximal fold induction: relative to vehicle control, read-out: max. fold increase of SMN protein. The protocol: The SMN HTRF (homogeneous time resolved fluorescence) assay is used to quantify the level of SMN protein in SMA patient fibroblast cells treated with test compounds. Materials used and respective sources are listed below in Table 4.
Cells are thawed and cultured in DMEM-10% FBS for 72 hours. Cells are trypsinized, counted and re-suspended to a concentration of 25,000 cells/mL in DMEM-10% FBS. The cell suspensions are plated at 5,000 cells per well in a 96 well microtiter plate and incubated for […]. […] 1 μL of test compound solution is transferred to cell-containing wells and cells are incubated for 48 hours in a cell culture incubator (37° C., 5% CO2, 100% relative humidity). Triplicate samples are set up for each test compound concentration. After 48 hours, the supernatant is removed from the wells and 25 μL of the RIPA lysis buffer, containing protease inhibitors, is added to the wells and incubated with shaking at room temperature for 1 hour. 25 μL of the diluent is added and then 35 μL of the resulting lysate is transferred to a 384-well plate, where each well contains 5 μL of the antibody solution (1:100 dilution of anti-SMN d2 and anti-SMN cryptate in SMN reconstitution buffer). The plate is centrifuged for 1 minute to bring the solution to the bottom of the wells, then incubated overnight at room temperature. Fluorescence for each well of the plate at 665 nm and 620 nm is measured on an EnVision multilabel plate reader (Perkin-Elmer).
The normalized fluorescence signal is calculated for each sample, Blank and vehicle control well by dividing the signal at 665 nm by the signal at 620 nm. Normalizing the signal accounts for possible fluorescence quenching due to the matrix effect of the lysate. The ΔF value (a measurement of SMN protein abundance as a percent value) for each sample well is calculated by subtracting the normalized average fluorescence for the Blank control wells from the normalized fluorescence for each sample well, then dividing this difference by the normalized average fluorescence for the Blank control wells and multiplying the resulting value by 100. The ΔF value for each sample well represents the SMN protein abundance from test compound-treated samples. The ΔF value for each sample well is divided by the ΔF value for the vehicle control wells to calculate the fold increase in SMN protein abundance relative to the vehicle control. Table 5 provides EC1-5× concentrations for SMN protein expression that was obtained from the 7-point concentration data generated according to the above procedure for particular compounds of the present invention.
Table 6 provides the maximum fold increase of SMN protein that was obtained from the 7-point concentration data generated according to the above procedure for particular compounds of the present invention

The test system of assay [2] is full length SMN2 minigene mRNA (HEK293H cells stably transfected with SMN2-A minigene). Put plainly: RT-qPCR assay for SMN2 minigene pre-mRNA splicing in cultured cells. Format: cell-based. Conditions: Homo sapiens, HEK293-H, 24 hours. (Real-time PCR tracks product formation cycle by cycle.)
The mark [3] stands for this setting: concentration increasing full length SMN2 minigene mRNA 1.5-fold vs vehicle, read-out: EC1.5x minigene.
The mark [4] stands for this setting: Table 3 (title: production of full length SMN2 minigene mRNA), read-out: EC1.5x SMN protein.

Where two headings read alike, the source gives them in different places.

Take `Cc1nc2ncc(-c3cc(=O)n4cc(N5CCN(C6COC6)CC5)ccc4n3)cn2n1` [Example 14, 7-[4-(oxetan-3-yl)piperazin-1-yl]2-(2-methyl-[1,2,4]triazolo[1,5-a]pyrimidin-6-yl)pyrido[1,2-a]pyrimidin-4-one]: in assay [1], the EC (1.5-fold) was more than 31.6 µM and the maximal fold induction came out at 1.35. Further, in assay [2] (setting [3]), the EC (1.5-fold) came to 26.2 µM.
With `Cc1nc2ccc(-c3cc(=O)n4cc(N5CC6CN(C)CC6C5)ccc4n3)nn2n1` (stereo not drawn) [Example 33, 7-(2-methyl-1,3,3a,4,6,6a-hexahydropyrrolo[3,4-c]pyrrol-5-yl)-2-(2-methyl-[1,2,4]triazolo[1,5-b]pyridazin-6-yl)pyrido[1,2-a]pyrimidin-4-one], in assay [1], the EC (1.5-fold) was 0.0151 µM and the maximal fold induction was determined as 1.67. The EC (1.5-fold) in assay [2] (setting [4]) turned out to be 0.0038 µM.
The corresponding values for `CCN1CCN(c2ccc3nc(-c4ccc5nc(C)nn5n4)cc(=O)n3c2)CC1` [Example 43, 7-(4-ethylpiperazin-1-yl)-2-(2-methyl-[1,2,4]triazolo[1,5-b]pyridazin-6-yl)pyrido[1,2-a]pyrimidin-4-one] are 0.0562 µM, 2.02 and 0.0328 µM.
For the compound `Cc1nc2ncc(-c3cc(=O)n4cc(N5C[C@H](C)N[C@@H](C)C5)ccc4n3)cn2n1` [Example 11, 7-[(3S,5S)-3,5-dimethylpiperazin-1-yl]-2-(2-methyl-[1,2,4]triazolo[1,5-a]pyrimidin-6-yl)pyrido[1,2-a]pyrimidin-4-one], in assay [1], the EC (1.5-fold) was determined as 0.175 µM and the maximal fold induction worked out at 1.77. Moreover, the EC (1.5-fold) in assay [2] (setting [3]) was less than 0.03 µM.
As to `Cc1nc2ccc(-c3cc(=O)n4cc(N5CC6(CCNCC6)C5)ccc4n3)nn2n1` [Example 38, 7-(2,7-diazaspiro[3.5]nonan-2-yl)-2-(2-methyl-[1,2,4]triazolo[1,5-b]pyridazin-6-yl)pyrido[1,2-a]pyrimidin-4-one], the EC (1.5-fold) in assay [1] is 0.0199 µM; in assay [2] (setting [4]) it was 0.002 µM. Also, in assay [1], the maximal fold induction was determined as 1.69.
The corresponding values for `Cc1nc2ccc(-c3cc(=O)n4cc(N5C[C@@H](C)N[C@@H](C)C5)cc(C)c4n3)nn2n1` [Example 26, 7-[(3R,5S)-3,5-dimethylpiperazin-1-yl]-9-methyl-2-(2-methyl-[1,2,4]triazolo[1,5-b]pyridazin-6-yl)pyrido[1,2-a]pyrimidin-4-one] are 0.225 µM, 0.0483 µM and 1.88.
Consider `Cc1nc2ncc(-c3cc(=O)n4cc(N5CC6CN(C)CC6C5)ccc4n3)cn2n1` (stereo not drawn) [Example 8], for which, in assay [1], the EC (1.5-fold) was determined as 0.313 µM and the maximal fold induction turned out to be 1.85. The EC (1.5-fold) in assay [2] (setting [3]) came to 0.0659 µM.
`Cc1nc2ccc(-c3cc(=O)n4cc(N5CC6(CCNCC6)C5)cc(C)c4n3)nn2n1` [Example 35, 7-(2,7-diazaspiro[3.5]nonan-2-yl)-9-methyl-2-(2-methyl-[1,2,4]triazolo[1,5-b]pyridazin-6-yl)pyrido[1,2-a]pyrimidin-4-one]: in assay [1], the EC (1.5-fold) stood at 0.0082 µM and the maximal fold induction was found to be 1.9. Also, in assay [2] (setting [4]), the EC (1.5-fold) came out at 0.0022 µM.
On to `Cc1nc2ccc(-c3cc(=O)n4cc(N5CCN[C@@H](C)C5)cc(C)c4n3)nn2n1` [Example 45, 9-methyl-7-[(3S)-3-methylpiperazin-1-yl]-2-(2-methyl-[1,2,4]triazolo[1,5-b]pyridazin-6-yl)pyrido[1,2-a]pyrimidin-4-one], for which, in assay [1], the EC (1.5-fold) came to 0.009 µM and the maximal fold induction came out at 2.04. Also, the EC (1.5-fold) in assay [2] (setting [4]) came to 0.0008 µM.
For `Cc1nc2ccc(-c3cc(=O)n4cc(N5CCCN(C)CC5)ccc4n3)nn2n1` [Example 20, 7-(4-methyl-1,4-diazepan-1-yl)-2-(2-methyl-[1,2,4]triazolo[1,5-b]pyridazin-6-yl)pyrido[1,2-a]pyrimidin-4-one], in that order: 0.12 µM, 1.77 and 0.0418 µM.
For `Cc1nc2ncc(-c3cc(=O)n4cc(N5CC6CNC6C5)ccc4n3)cn2n1` (stereo not drawn) [Example 9, 7-(3,6-diazabicyclo[3.2.0]heptan-3-yl)-2-(2-methyl-[1,2,4]triazolo[1,5-a]pyrimidin-6-yl)pyrido[1,2-a]pyrimidin-4-one], the EC (1.5-fold) in assay [1] was determined as 2.88 µM; in assay [2] (setting [3]), 0.283 µM. The maximal fold induction in assay [1] was 1.9.
`Cc1nc2ccc(-c3cc(=O)n4cc(N5CCN(C)CC5)ccc4n3)nn2n1` [Example 39, 7-(4-methylpiperazin-1-yl)-2-(2-methyl-[1,2,4]triazolo[1,5-b]pyridazin-6-yl)pyrido[1,2-a]pyrimidin-4-one]: in assay [1], the EC (1.5-fold) amounted to 0.09 µM and the maximal fold induction is 1.74. The EC (1.5-fold) in assay [2] (setting [4]) is 0.0272 µM.
The corresponding values for `Cc1nc2ccc(-c3cc(=O)n4cc(N5CCN(C)CC5)cc(C)c4n3)nn2n1` [Example 27, 9-methyl-7-(4-methylpiperazin-1-yl)-2-(2-methyl-[1,2,4]triazolo[1,5-b]pyridazin-6-yl)pyrido[1,2-a]pyrimidin-4-one] are 0.0347 µM, 1.74 and 0.014 µM.
Turning to `Cc1nc2ncc(-c3cc(=O)n4cc(N5CCNCC5)ccc4n3)cn2n1` [Example 1, 2-(2-methyl-[1,2,4]triazolo[1,5-a]pyrimidin-6-yl)-7-piperazin-1-yl-pyrido[1,2-a]pyrimidin-4-one], in assay [1], the EC (1.5-fold) was 0.221 µM and the maximal fold induction was found to be 1.9. Moreover, the EC (1.5-fold) in assay [2] (setting [3]) is 0.0584 µM.
The corresponding values for `Cc1nc2ccc(-c3cc(=O)n4cc(N5CCN[C@H](C)C5)ccc4n3)nn2n1` [Example 17, 7-[(3R)-3-methylpiperazin-1-yl]-2-(2-methyl-[1,2,4]triazolo[1,5-b]pyridazin-6-yl)pyrido[1,2-a]pyrimidin-4-one] are 0.0932 µM, 1.82 and 0.0191 µM.
Take `Cc1nc2ccc(-c3cc(=O)n4cc(N5CC[C@@H](N(C)C)C5)ccc4n3)nn2n1` [Example 41, 7-[(3R)-3-(dimethylamino)pyrrolidin-1-yl]-2-(2-methyl-[1,2,4]triazolo[1,5-b]pyridazin-6-yl)pyrido[1,2-a]pyrimidin-4-one]: the EC (1.5-fold) in assay [1] came to 0.207 µM; in assay [2] (setting [4]) it was 0.163 µM. For the same compound, the maximal fold induction in assay [1] was 1.75.
As for `Cc1nc2ncc(-c3cc(=O)n4cc(N5C[C@@H](C)N[C@@H](C)C5)ccc4n3)cn2n1` [Example 2, 7-[(3R,5S)-3,5-dimethylpiperazin-1-yl]-2-(2-methyl-[1,2,4]triazolo[1,5-a]pyrimidin-6-yl)pyrido[1,2-a]pyrimidin-4-one], in assay [1], the EC (1.5-fold) turned out to be 0.508 µM and the maximal fold induction stood at 1.93. Moreover, in assay [2] (setting [3]), the EC (1.5-fold) was 0.067 µM.
The corresponding values for `Cc1nc2ncc(-c3cc(=O)n4cc(N5CC[C@@H](N(C)C)C5)ccc4n3)cn2n1` [Example 3, 7-[(3R)-3-(dimethylamino)pyrrolidin-1-yl]-2-(2-methyl-[1,2,4]triazolo[1,5-a]pyrimidin-6-yl)pyrido[1,2-a]pyrimidin-4-one] are 0.52 µM, 1.79 and 0.0452 µM.
